{"source": "patent US11420976B2", "about": "(priority 2020, dated 2022)", "data": [{"system": "Human RSV-A (“Long” strain)", "experiment": "RSV-A assay (CPE, ATPlite readout in Hep-2 cells)", "format": "cell-based", "conditions": "human respiratory syncytial virus, 120 h; Hep-2 cells, MOI 0.1, 5-day incubation, ATPlite; read-out: Human RSV-A (“Long” strain) EC50", "description": "(§1) Hep-2 cells, (originally derived from tumors grown in irradiated-cortisonised weanling rats that had been injected with epidermoid carcinoma tissue from a person's larynx, but later found to be indistinguishable from HeLa cells by PCR DNA analysis), were used for the culturing of genotype A, “Long” strain RSV. Flasks were inoculated with RSV and viral stocks were collected once cytopathic effect (CPE) was greater than 90%. Viral stocks in 25% sucrose media were snap frozen using liquid nitrogen to increase viral stability. Viral stock titers were quantified by tissue culture infectious dose 50% (TCID50) using 8,000 cells per well and 3-fold viral dilutions across a 96-well plate, cultured for 4 days. Viral stock titers were also quantified by a plaque forming unit assay, as described elsewhere.\n(§2) Following extensive parameter testing, the final assay is run as follows: Hep-2 cells are seeded into the inner 60 wells of a 96-well plate at 8,000 cells per well in a volume of 50 μL using Growth Media (DMEM without phenol red, 1% L-Glut, 1% Penn/Strep, 1% nonessential amino acids, 10% heat-inactivated FBS). 2-fold serial dilutions of control and test compounds are added to the wells in duplicate in a total volume of 25 μL. Viral stock is then added to the wells at a multiplicity of infection (MOI) of 0.1 in a volume of 25 μL, bringing the total volume of each well to 100 μL. The MOI is calculated using the PFU/mL, or TCID50 if unavailable. Each 96-well plate has a control column of 6 wells with cells and virus but no compound (negative control, max CPE), a column with cells but no compound or virus (positive control, minimum CPE), and a column with no cells or virus or compound (background plate/reagent control). The control wells with cells but no virus are given an additional […], of growth media containing an equal quantity of sucrose as those wells receiving the viral stock in order to keep consistent in media and volume conditions. The outer wells of the plate are filled with 125 μL of moat media (DMEM, 1% Penn/Strep) to act as a thermal and evaporative moat around the test wells. Following a 5-day incubation period, the plates are read using ATPlite (50 uL added per well), which quantifies the amount of ATP (a measure of cell health) present in each well. Assay plates are read using the Envision luminometer. […] EC50 ranges are as follows: A<0.2 μM; B≥0.2 μM.", "units": {"EC50": "nM"}, "values": [{"smiles": "COc1cc(C(=O)NC[C@](O)(c2cc3c(c(-c4ccc(F)cc4)n2)OC[C@@]3(N)C(F)(F)F)C2CC2)cc2sc(N)nc12", "note": "[Example 53, 2-amino-N—((S)-2-((R)-3-amino-7-(4-fluorophenyl)-3-(trifluoromethyl)-2,3-dihydrofuro[2,3-c]pyridin-5-yl)-2-cyclopropyl-2-hydroxyethyl)-4-methoxybenzo[d]thiazole-6-carboxamide]", "EC50": "< 200"}, {"smiles": "COc1cc(C(=O)NC[C@](O)(c2cc3c(c(-c4ccc(F)cc4)n2)OC[C@@]3(NC(=O)CO)C(F)(F)F)C(F)(F)F)ccc1OC1CC1", "note": "[Example 14, 4-cyclopropoxy-3-methoxy-N—((S)-3,3,3-trifluoro-2-((R)-7-(4-fluorophenyl)-3-(2-hydroxyacetamido)-3-(trifluoromethyl)-2,3-dihydrofuro[2,3-c]pyridin-5-yl)-2-hydroxypropyl)benzamide]", "EC50": "< 200"}, {"smiles": "COc1ccc(C(=O)NC[C@](O)(c2cc3c(c(-c4ccc(F)cc4)n2)OC[C@@]3(N)C(F)(F)F)C(F)(F)F)cc1OC", "note": "[Example 34]", "EC50": "> 200"}, {"smiles": "COc1cccc2cc(C(=O)NC[C@](O)(c3cc4c(c(-c5ccc(F)cc5)n3)OC[C@@]4(N)C(F)(F)F)C(F)(F)F)cnc12", "note": "[Example 41]", "EC50": "> 200"}, {"smiles": "COc1ccc2nc(C(=O)NC[C@](O)(c3cc4c(c(-c5ccc(F)cc5)n3)OC[C@@]4(N)C(F)(F)F)C(F)(F)F)cc(OC)c2c1", "note": "[Example 43]", "EC50": "> 200"}, {"smiles": "N[C@@]1(C(F)(F)F)COc2c1cc([C@@](O)(CNC(=O)c1cc(OC3CC3)c3c(ccc[n+]3[O-])c1)C1CC1)nc2-c1ccc(F)cc1", "note": "[Example 59b]", "EC50": "> 200"}, {"smiles": "C[C@](O)(CNC(=O)c1cc(OC2CC2)c2ncccc2c1)c1cc2c(c(-c3ccc(F)cc3)n1)OC[C@@]2(N)C(F)(F)F", "note": "[Example 16, N—((S)-2-((R)-3-amino-7-(4-fluorophenyl)-3-(trifluoromethyl)-2,3-dihydrofuro[2,3-c]pyridin-5-yl)-2-hydroxypropyl)-8-cyclopropoxyquinoline-6-carboxamide]", "EC50": "< 200"}, {"smiles": "N[C@@]1(C(F)(F)F)COc2c1cc([C@](O)(CO)CNC(=O)c1cc(OC3CC3)c3ncccc3c1)nc2-c1ccc(F)cc1", "note": "[Example 59]", "EC50": "> 200"}, {"smiles": "COc1cc(C(=O)NC[C@](O)(c2cc3c(c(-c4ccc(F)cc4)n2)OC[C@]3(N)C(F)(F)F)C(F)(F)F)ccc1OCCO", "note": "[Example 33]", "EC50": "> 200"}, {"smiles": "Nc1nc2c(F)cc(C(=O)NC[C@](O)(c3cc4c(c(-c5ccc(F)cc5)n3)OC[C@@]4(N)C(F)(F)F)C3CC3)cc2s1", "note": "[Example 54, 2-amino-N—((S)-2-((R)-3-amino-7-(4-fluorophenyl)-3-(trifluoromethyl)-2,3-dihydrofuro[2,3-c]pyridin-5-yl)-2-cyclopropyl-2-hydroxyethyl)-4-fluorobenzo[d]thiazole-6-carboxamide]", "EC50": "< 200"}, {"smiles": "COc1cc(C(=O)NC[C@](O)(c2cc3c(c(-c4ccc(F)cc4)n2)OC[C@@]3(N)C(F)(F)F)C(F)(F)F)ccc1OCCO", "note": "[Example 31]", "EC50": "> 200"}, {"smiles": "COc1cc(C(=O)NC[C@](C)(O)c2cc3c(c(-c4ccc(F)cc4)n2)OC[C@@]3(NS(=O)(=O)C(C)(C)C)C(F)(F)F)cc2cccnc12", "note": "[Example 46]", "EC50": "> 200"}, {"smiles": "Cc1ccc2cc(C(=O)NC[C@](O)(c3cc4c(c(-c5ccc(F)cc5)n3)OC[C@@]4(N)C(F)(F)F)C3CC3)cc(OC3CC3)c2n1", "note": "[Example 59e]", "EC50": "< 200"}, {"smiles": "COc1cc(C(=O)NC[C@@](O)(c2cc3c(c(-c4ccc(F)cc4)n2)OC[C@@]3(N)C(F)(F)F)C(F)(F)F)ccc1OC1CC1", "note": "[Example 2, N—((R)-2-((R)-3-amino-7-(4-fluorophenyl)-3-(trifluoromethyl)-2,3-dihydrofuro[2,3-c]pyridin-5-yl)-3,3,3-trifluoro-2-hydroxypropyl)-4-cyclopropoxy-3-methoxybenzamide]", "EC50": "> 200"}, {"smiles": "COc1cc(C(=O)NC[C@](O)(c2cc3c(c(-c4ccc(F)cc4)n2)OC[C@@]3(N)C(F)(F)F)C(F)(F)F)ccc1C(F)(F)F", "note": "[Example 42]", "EC50": "> 200"}, {"smiles": "Cn1cc2cc(C(=O)NC[C@](O)(c3cc4c(c(-c5ccc(F)cc5)n3)OC[C@@]4(N)C(F)(F)F)C3CC3)cc(F)c2n1", "note": "[Example 64]", "EC50": "< 200"}, {"smiles": "N[C@@]1(C(F)(F)F)COc2c1cc([C@@](O)(CNC(=O)c1cc(OC3CC3)c3ncccc3c1)C1COC1)nc2-c1ccc(F)cc1", "note": "[Example 58]", "EC50": "> 200"}, {"smiles": "COc1cc(C(=O)NC[C@](O)(c2cc3c(c(-c4ccc(F)cc4)n2)OC[C@@]3(N)C(F)(F)F)C2CC2)cc2cn(C)nc12", "note": "[Example 55, N—((S)-2-((R)-3-amino-7-(4-fluorophenyl)-3-(trifluoromethyl)-2,3-dihydrofuro[2,3-c]pyridin-5-yl)-2-cyclopropyl-2-hydroxyethyl)-7-methoxy-2-methyl-2H-indazole-5-carboxamide]", "EC50": "< 200"}, {"smiles": "N[C@@]1(C(F)(F)F)COc2c1cc([C@@](O)(CNC(=O)c1cc(OC3CC3)c3nc(Cl)ccc3c1)C1CC1)nc2-c1ccc(F)cc1", "note": "[Example 59d]", "EC50": "< 200"}, {"smiles": "C[C@](O)(CNC(=O)c1cc(OC2CC2)c2ncccc2c1)c1cc2c(c(-c3ccc(F)c(Cl)c3)n1)OC[C@@]2(N)C(F)(F)F", "note": "[Example 56]", "EC50": "> 200"}, {"smiles": "COc1cnc(C(=O)NC[C@](O)(c2cc3c(c(-c4ccc(F)cc4)n2)OC[C@@]3(N)C(F)(F)F)C(F)(F)F)cc1OC", "note": "[Example 35]", "EC50": "> 200"}, {"smiles": "COc1cc(C(=O)NC[C@](O)(c2cc3c(c(-c4ccc(F)cc4)n2)OC[C@@]3(N)C(F)(F)F)C(F)(F)F)nc2ccccc12", "note": "[Example 40]", "EC50": "> 200"}, {"smiles": "COc1cc(C(=O)NC[C@@](O)(c2cc3c(c(-c4ccc(F)cc4)n2)OC[C@]3(N)C(F)(F)F)C(F)(F)F)ccc1OCCO", "note": "[Example 32]", "EC50": "> 200"}, {"smiles": "N[C@@]1(C(F)(F)F)COc2c1cc([C@@](O)(CNC(=O)c1cc(OC3CC3)c3[nH]c(=O)ccc3c1)C1CC1)nc2-c1ccc(F)cc1", "note": "[Example 59c]", "EC50": "> 200"}, {"smiles": "COCCOc1ccc(C(=O)NC[C@](O)(c2cc3c(c(-c4ccc(F)cc4)n2)OC[C@@]3(N)C(F)(F)F)C(F)(F)F)cc1OC", "note": "[Example 37]", "EC50": "> 200"}, {"smiles": "CC(C)(C)S(=O)(=O)N[C@@]1(C(F)(F)F)COc2c1cc([C@@](C)(O)CNC(=O)c1cc(OC3CC3)c3ncccc3c1)nc2-c1ccc(F)cc1", "note": "[Example 45]", "EC50": "> 200"}, {"smiles": "COc1cc(C(=O)NC[C@](O)(c2cc3c(c(-c4ccc(F)cc4)n2)OC[C@@]3(N)C(F)(F)F)C2COC2)ccc1OC1CC1", "note": "[Example 57]", "EC50": "> 200"}, {"smiles": "COc1cc(C(=O)NC[C@](O)(c2cc3c(c(-c4ccc(F)cc4)n2)OC[C@@]3(N)C(F)(F)F)C(F)(F)F)ccc1OCC(C)C", "note": "[Example 36]", "EC50": "> 200"}, {"smiles": "COc1cc(F)c(C(=O)NC[C@](O)(c2cc3c(c(-c4ccc(F)cc4)n2)OC[C@@]3(N)C(F)(F)F)C(F)(F)F)cc1OC", "note": "[Example 38]", "EC50": "> 200"}, {"smiles": "COc1cc(C(=O)NC[C@](O)(c2cc3c(c(-c4ccc(F)cc4)n2)OC[C@@]3(N)C(F)(F)F)C(C)(C)C)ccc1OC1CC1", "note": "[Example 12, N—((S)-2-((R)-3-amino-7-(4-fluorophenyl)-3-(trifluoromethyl)-2,3-dihydrofuro[2,3-c]pyridin-5-yl)-2-hydroxy-3,3-dimethylbutyl)-4-cyclopropoxy-3-methoxybenzamide]", "EC50": "> 200"}, {"smiles": "COC[C@](O)(CNC(=O)c1cc(OC2CC2)c2ncccc2c1)c1cc2c(c(-c3ccc(F)cc3)n1)OC[C@@]2(N)C(F)(F)F", "note": "[Example 50, N—((S)-2-((R)-3-amino-7-(4-fluorophenyl)-3-(trifluoromethyl)-2,3-dihydrofuro[2,3-c]pyridin-5-yl)-2-hydroxy-3-methoxypropyl)-8-cyclopropoxyquinoline-6-carboxamide]", "EC50": "< 200"}]}, {"system": "Human RSV-A (“Long” strain)", "experiment": "RSV-A assay (CPE, ATPlite readout in Hep-2 cells)", "format": "cell-based", "conditions": "human respiratory syncytial virus, HEp-2, 120 h, read-out: Human RSV-A (“Long” strain) EC50", "description": "as §1, §2", "units": {"EC50": "nM"}, "values": [{"smiles": "COc1cc(C(=O)NC[C@](C)(O)c2cc3c(c(-c4ccc(F)cc4)n2)OC[C@@]3(NC(=N)NC#N)C(F)(F)F)ccc1OC1CC1", "note": "[Example 21, N—((S)-2-((R)-3-(3-cyanoguanidino)-7-(4-fluorophenyl)-3-(trifluoromethyl)-2,3-dihydrofuro[2,3-c]pyridin-5-yl)-2-hydroxypropyl)-4-cyclopropoxy-3-methoxybenzamide]", "EC50": "< 200"}, {"smiles": "COC(=O)N[C@@]1(C(F)(F)F)COc2c1cc([C@@](C)(O)CNC(=O)c1ccc(OC3CC3)c(OC)c1)nc2-c1ccc(F)cc1", "note": "[Example 15, methyl ((R)-5-((S)-1-(4-cyclopropoxy-3-methoxybenzamido)-2-hydroxypropan-2-yl)-7-(4-fluorophenyl)-3-(trifluoromethyl)-2,3-dihydrofuro[2,3-c]pyridin-3-yl)carbamate]", "EC50": "< 200"}]}]}
